Where two headings read alike, the source gives them in different places.
Tests used:
Experiment in all cases: Clytin II luminescence calcium assay, HEK293
Type in all cases: cell-based
[1] = molecular target: T1, TAS2R46 (hTAS2R46) (Homo sapiens, UniProt P59540); conditions: agonist; G-alpha16-gust44 co-expressed; HBSS, 10 mM HEPES pH 7.4
T1 construct: full-length TAS2R46 with first 45 amino acids of SST3 fused at N-terminus; pEF-DEST51; transient in HEK293 with G-alpha16-gust44 and mitochondrial Clytin II
T1 sequence (P59540 1-309): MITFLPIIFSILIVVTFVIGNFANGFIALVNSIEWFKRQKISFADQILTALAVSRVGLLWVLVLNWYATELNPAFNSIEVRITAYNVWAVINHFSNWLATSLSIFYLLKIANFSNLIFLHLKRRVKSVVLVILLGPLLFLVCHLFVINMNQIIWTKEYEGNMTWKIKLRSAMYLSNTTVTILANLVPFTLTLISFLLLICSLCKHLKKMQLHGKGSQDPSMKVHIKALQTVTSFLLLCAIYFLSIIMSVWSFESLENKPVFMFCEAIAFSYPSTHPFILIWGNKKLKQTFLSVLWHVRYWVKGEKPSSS

[2] = molecular target: T1, TAS2R46 (hTAS2R46)
[3] = molecular target: T1, TAS2R46 (hTAS2R46); conditions: agonist; G-alpha16-gust44 co-expressed; HBSS, 10 mM HEPES pH 7.4; remark: listed apart in the source

SMILES | threshold [3] | further results
C[C@]12CC[C@@H]3c4ccc(O)cc4CC[C@H]3[C@@H]1CCC2=O [estrone] |  | Clytin II luminescence calcium assay, HEK293 [1]: All candidate compounds, except estrone, elicited concentration-dependent responses
C[C@]12CC[C@H](O)CC1=CC[C@@H]1[C@@H]2CC[C@]2(C)C(=O)CC[C@@H]12 [dehydroepiandrosterone] |  | EC50 ([2]; read-out: EC50): 14.9 µM
C[C@]12CCC(=O)C[C@@H]1CC[C@@H]1[C@@H]2CC[C@]2(C)[C@@H](O)CC[C@@H]12 [dihydrotestosterone] | All candidate compounds, except estrone, elicited concentration-dependent responses in TAS2R46-expressing HEK293 cells | 
CC(=O)[C@@]1(O)CC[C@H]2[C@@H]3CCC4=CC(=O)CC[C@]4(C)[C@H]3CC[C@@]21C [17-hydroxyprogesterone] |  | EC50 ([2]; read-out: EC50): 3.8 µM
C[C@]12CCC(=O)C=C1CC[C@@H]1[C@@H]2[C@@H](O)C[C@@]2(C)[C@H]1CC[C@]2(O)C(=O)CO [cortisol] | cortisol and corticosterone showed lower potency than their metabolic intermediates, deoxycorticosterone and cortexolone, respectively | 
C[C@]12CC[C@H]3[C@@H](CCC4=CC(=O)CC[C@@]43C)[C@@H]1CC[C@@H]2O [testosterone] |  | EC50 [2]: 11.7 µM
C[C@]12CCC(=O)C=C1CC[C@@H]1[C@@H]2CC[C@@]2(C)[C@H]1CC[C@]2(O)C(=O)CO [cortexolone] | cortisol and corticosterone showed lower potency than their metabolic intermediates, deoxycorticosterone and cortexolone, respectively | 
C[C@]12CCC(=O)C=C1CC[C@@H]1[C@@H]2CC[C@]2(C)C(=O)CC[C@@H]12 [androstenedione] | All candidate compounds, except estrone, elicited concentration-dependent responses in TAS2R46-expressing HEK293 cells | 
C[C@]12CC[C@H]3[C@@H](CCC4=CC(=O)CC[C@@]43C)[C@@H]1CC[C@@H]2C(=O)CO [deoxycorticosterone] | cortisol and corticosterone showed lower potency than their metabolic intermediates, deoxycorticosterone and cortexolone, respectively | 
CC(=O)[C@H]1CC[C@H]2[C@@H]3CCC4=CC(=O)CC[C@]4(C)[C@H]3CC[C@]12C [progesterone] |  | EC50 ([2]; read-out: EC50): 7.9 µM
C[C@]12C[C@H](O)[C@H]3[C@@H](CCC4=CC(=O)CC[C@@]43C)[C@@H]1CC[C@@H]2C(=O)CO [corticosterone] | cortisol and corticosterone showed lower potency than their metabolic intermediates, deoxycorticosterone and cortexolone, respectively | 

— article PMC13393665, “Structure-based virtual screening identifies potential endogenous ligands of the human bitter taste receptor TAS2R46” (The Journal of Biological Chemistry, 2026)
